Active and inactive are the calls of the source. The calls are words filed in the database; no cut-off is given here. Bounds are passed on as bounds.

Data set [1] deals with T1, Bromodomain testis-specific protein (Homo sapiens, UniProt Q58F21). Briefly: Binding affinity to human partial length BRDT-BD2 (K250 to E382 residues) expressed in bacterial expression system by BROMOscan method.
The species named for data set [2] is Homo sapiens. Nature of the data set: Selectivity ratio of Kd for binding affinity to human partial length EP300 (A1040 to G1161 residues) expressed in bacterial expression system to Kd for binding affinity to human partial length BRD4-BD1 (N44 to E168 residues) expressed in bacterial expression system.
For data set [3], the target named is T1, Bromodomain testis-specific protein. Nature of the data set: Binding affinity to human partial length BRDT-BD1 (N21 to E137 residues) expressed in bacterial expression system by BROMOscan method.
The target in data set [4] is T2, Bromodomain-containing protein 4 (Homo sapiens, UniProt O60885). Nature of the data set: Binding affinity to human partial length BRD4-BD1 (N44 to E168 residues) expressed in bacterial expression system by BROMOscan method.
Data set [5] has as its target T3, Bromodomain-containing protein 3 (Homo sapiens, UniProt Q15059). Nature of the data set: Binding affinity to human partial length BRD3-BD2 (G306 to P416 residues) expressed in bacterial expression system by BROMOscan method.
For data set [6], the species on record is Homo sapiens. Nature of the data set: Selectivity ratio of Kd for binding affinity to human partial length CREBBP (R1081 to G1197 residues) expressed in bacterial expression system to Kd for binding affinity to human partial length BRD2-BD2 (E348 to D455 residues) expressed in bacterial expression system.
The species named for data set [7] is Homo sapiens. Briefly: Selectivity ratio of Kd for binding affinity to human partial length CREBBP (R1081 to G1197 residues) expressed in bacterial expression system to Kd for binding affinity to human partial length BRD4-BD1 (N44 to E168 residues) expressed in bacterial expression system.
For data set [8], the target named is T4, Bromodomain-containing protein 2 (Homo sapiens, UniProt P25440). Nature of the data set: Binding affinity to human partial length BRD2-BD2 (E348 to D455 residues) expressed in bacterial expression system by BROMOscan method.
T4 sequence (P25440 whole entry, the tested form may be a part): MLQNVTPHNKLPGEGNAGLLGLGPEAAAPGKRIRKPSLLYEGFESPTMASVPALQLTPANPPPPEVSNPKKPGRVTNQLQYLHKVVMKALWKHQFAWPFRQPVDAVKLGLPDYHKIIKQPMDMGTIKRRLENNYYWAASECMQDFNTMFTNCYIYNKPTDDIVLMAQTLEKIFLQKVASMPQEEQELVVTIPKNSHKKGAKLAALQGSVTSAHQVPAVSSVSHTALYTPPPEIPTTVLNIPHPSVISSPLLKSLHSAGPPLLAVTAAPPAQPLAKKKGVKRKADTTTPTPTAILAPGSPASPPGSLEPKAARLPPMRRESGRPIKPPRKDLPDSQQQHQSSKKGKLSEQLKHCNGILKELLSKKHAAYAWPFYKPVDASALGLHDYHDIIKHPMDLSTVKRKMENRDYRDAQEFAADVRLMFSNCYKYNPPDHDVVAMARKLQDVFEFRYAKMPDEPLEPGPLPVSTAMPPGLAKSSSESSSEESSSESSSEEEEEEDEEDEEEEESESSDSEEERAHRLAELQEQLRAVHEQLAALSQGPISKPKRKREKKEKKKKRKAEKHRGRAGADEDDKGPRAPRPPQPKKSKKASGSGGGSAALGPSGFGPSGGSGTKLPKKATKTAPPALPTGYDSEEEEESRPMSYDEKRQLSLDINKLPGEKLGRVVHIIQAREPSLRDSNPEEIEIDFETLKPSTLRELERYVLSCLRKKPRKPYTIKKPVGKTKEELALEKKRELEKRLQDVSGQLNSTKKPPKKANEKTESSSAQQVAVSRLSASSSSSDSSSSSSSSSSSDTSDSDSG
The species named for data set [9] is Homo sapiens. Briefly: Selectivity ratio of Kd for binding affinity to human partial length CREBBP (R1081 to G1197 residues) expressed in bacterial expression system to Kd for binding affinity to human partial length BRD3-BD1 (P24 to E144 residues) expressed in bacterial expression system.
The species named for data set [10] is Homo sapiens. Briefly: Selectivity ratio of Kd for binding affinity to human partial length CREBBP (R1081 to G1197 residues) expressed in bacterial expression system to Kd for binding affinity to human partial length BRD3-BD2 (G306 to P416 residues) expressed in bacterial expression system.
The species named for data set [11] is Homo sapiens. Nature of the data set: Selectivity ratio of Kd for binding affinity to human partial length EP300 (A1040 to G1161 residues) expressed in bacterial expression system to Kd for binding affinity to human partial length BRD3-BD2 (G306 to P416 residues) expressed in bacterial expression system.
The species entered for data set [12] is Homo sapiens. Briefly: Selectivity ratio of Kd for binding affinity to human partial length EP300 (A1040 to G1161 residues) expressed in bacterial expression system to Kd for binding affinity to human partial length BRD4-BD2 (K333 to E460 residues) expressed in bacterial expression system.
Data set [13] can be described thus: Toxicity in imiquimod-induced Harlan Balb/c mouse model of psoriasis assessed as effect on body weight at 3 to 30 mg/kg, po BID for 7 days. The class given is organism-based. The conditions noted are these: in vivo, 168 h, dose 3-30 mg/kg, time 7 day.
Data set [14] deals with PBMC. Briefly: Inhibition of IL-6 production in LPS-induced human PBMC preincubated for 1 hr followed by LPS-stimulation and measured after 20 hrs by magnetic beads technique based assay. To be noted: time 21.0 hrs. It counts as functional, tissue-based.
For data set [15], the species on record is Homo sapiens. Briefly: Selectivity ratio of Kd for binding affinity to human partial length EP300 (A1040 to G1161 residues) expressed in bacterial expression system to Kd for binding affinity to human partial length BRD3-BD1 (P24 to E144 residues) expressed in bacterial expression system.
Data set [16] is filed under the species Homo sapiens. Briefly: Selectivity ratio of Kd for binding affinity to human partial length EP300 (A1040 to G1161 residues) expressed in bacterial expression system to Kd for binding affinity to human partial length BRD2-BD2 (E348 to D455 residues) expressed in bacterial expression system.
For data set [17], the system named is Mus musculus. Nature of the data set: Protection against imiquimod-induced po dosed Harlan Balb/c mouse model of psoriasis assessed as decrease in ear thickness administered BID for 7 days measured on day 8 by dial gauge micrometer analysis. To be noted: dose 3-30 mg/kg, time 7.0 day. The class given is functional, organism-based.
Data set [18] is described as follows: Stability of compound in human liver microsomes assessed as parent compound remaining after 1 hr.
The target in data set [19] is T3, Bromodomain-containing protein 3. Briefly: Binding affinity to human partial length BRD3-BD1 (P24 to E144 residues) expressed in bacterial expression system by BROMOscan method.
Data set [20] has as its target Voltage-gated inwardly rectifying potassium channel KCNH2 (Homo sapiens, UniProt Q12809). Briefly: Inhibition of human ERG stably expressed in CHO cells at holding potential of -80 mV incubated for 12 mins.
The species entered for data set [21] is Homo sapiens. Briefly: Selectivity ratio of Kd for binding affinity to human partial length CREBBP (R1081 to G1197 residues) expressed in bacterial expression system to Kd for binding affinity to human partial length BRDT-BD1 (N21 to E137 residues) expressed in bacterial expression system.
For data set [22], the target named is Mitogen-activated protein kinase 7 (Homo sapiens, UniProt Q13164). Briefly: Inhibition of recombinant human ERK5 using myelin basic protein as substrate by [gamm33P]ATP based HotSpot radiometric assay.
Mitogen-activated protein kinase 7, sequence (Q13164 whole entry, the tested form may be a part): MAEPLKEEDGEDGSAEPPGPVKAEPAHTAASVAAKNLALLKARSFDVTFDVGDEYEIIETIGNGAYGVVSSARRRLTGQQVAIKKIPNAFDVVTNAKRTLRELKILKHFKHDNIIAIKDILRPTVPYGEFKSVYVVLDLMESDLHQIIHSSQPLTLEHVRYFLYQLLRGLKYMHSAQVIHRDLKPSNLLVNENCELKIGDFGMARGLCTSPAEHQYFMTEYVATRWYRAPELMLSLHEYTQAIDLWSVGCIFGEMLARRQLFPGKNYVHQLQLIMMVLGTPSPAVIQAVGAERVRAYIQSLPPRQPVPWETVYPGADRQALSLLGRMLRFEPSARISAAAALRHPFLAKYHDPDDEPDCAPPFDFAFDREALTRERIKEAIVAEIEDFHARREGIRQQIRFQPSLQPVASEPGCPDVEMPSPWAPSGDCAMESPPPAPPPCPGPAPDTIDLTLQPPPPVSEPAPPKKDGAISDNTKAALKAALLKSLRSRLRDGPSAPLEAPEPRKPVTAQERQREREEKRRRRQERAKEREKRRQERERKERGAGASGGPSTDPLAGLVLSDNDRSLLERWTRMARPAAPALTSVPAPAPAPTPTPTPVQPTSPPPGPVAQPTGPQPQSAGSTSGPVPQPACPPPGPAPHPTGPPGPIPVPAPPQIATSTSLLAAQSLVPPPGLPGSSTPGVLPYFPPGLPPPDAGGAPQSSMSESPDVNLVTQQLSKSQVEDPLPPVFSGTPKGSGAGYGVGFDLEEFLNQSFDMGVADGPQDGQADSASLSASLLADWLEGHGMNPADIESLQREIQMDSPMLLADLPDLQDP
The species named for data set [23] is Homo sapiens. Nature of the data set: Selectivity ratio of Kd for binding affinity to human partial length CREBBP (R1081 to G1197 residues) expressed in bacterial expression system to Kd for binding affinity to human partial length BRD2-BD1 (K71 to N194 residues) expressed in bacterial expression system.
Data set [24] concerns the target T4, Bromodomain-containing protein 2. Nature of the data set: Binding affinity to human partial length BRD2-BD1 (K71 to N194 residues) expressed in bacterial expression system by BROMOscan method.
Data set [25] deals with T2, Bromodomain-containing protein 4. Nature of the data set: Inhibition of BRD4-BD1 (unknown origin) by TR-FRET assay. (In general: TR-FRET usually uses a lanthanide donor and a delayed reading to cut background.)
The species entered for data set [26] is Homo sapiens. Briefly: Selectivity ratio of Kd for binding affinity to human partial length CREBBP (R1081 to G1197 residues) expressed in bacterial expression system to Kd for binding affinity to human partial length BRDT-BD2 (K250 to E382 residues) expressed in bacterial expression system.
The species entered for data set [27] is Homo sapiens. Briefly: Selectivity ratio of Kd for binding affinity to human partial length CREBBP (R1081 to G1197 residues) expressed in bacterial expression system to Kd for binding affinity to human partial length BRD4-BD2 (K333 to E460 residues) expressed in bacterial expression system.
Data set [28] deals with T2, Bromodomain-containing protein 4. Briefly: Inhibition of BRD4 in human PBMC assessed as reduction in LPS-induced TNFalpha secretion preincubated for 1 hr followed by LPS-stimulation and measured after 20 hrs by magnetic beads technique based assay.
For data set [29], the species on record is Homo sapiens. Nature of the data set: Selectivity ratio of Kd for binding affinity to human partial length EP300 (A1040 to G1161 residues) expressed in bacterial expression system to Kd for binding affinity to human partial length BRDT-BD1 (N21 to E137 residues) expressed in bacterial expression system.
Another data set addresses CREB-binding protein (Homo sapiens, UniProt Q92793). Nature of the data set: Binding affinity to human partial length CREBBP (R1081 to G1197 residues) expressed in bacterial expression system by BROMOscan method.
The species named for data set [30] is Homo sapiens. Nature of the data set: Selectivity ratio of Kd for binding affinity to human partial length EP300 (A1040 to G1161 residues) expressed in bacterial expression system to Kd for binding affinity to human partial length BRDT-BD2 (K250 to E382 residues) expressed in bacterial expression system.
Data set [31] deals with PBMC. Nature of the data set: Inhibition of MCP-1 production in LPS-induced human PBMC preincubated for 1 hr followed by LPS-stimulation and measured after 20 hrs by magnetic beads technique based assay. The class given is functional, tissue-based. To be noted: time 21.0 hrs.
Data set [32] is filed under the species Homo sapiens. Nature of the data set: Selectivity ratio of Kd for binding affinity to human partial length EP300 (A1040 to G1161 residues) expressed in bacterial expression system to Kd for binding affinity to human partial length BRD2-BD1 (K71 to N194 residues) expressed in bacterial expression system.
Data set [33] deals with T2, Bromodomain-containing protein 4. Nature of the data set: Binding affinity to human partial length BRD4-BD2 (K333 to E460 residues) expressed in bacterial expression system by BROMOscan method.
Data set [34] relates to Mus musculus. Nature of the data set: Protection against imiquimod-induced Harlan Balb/c mouse model of psoriasis assessed as decrease in ear thickness at 10 mg/kg, po administered BID for 7 days measured on day 8 by dial gauge micrometer analysis. It counts as functional, organism-based. The conditions noted are these: time 7.0 day.
Data set [35] has as its target Histone acetyltransferase p300 (Homo sapiens, UniProt Q09472). Nature of the data set: Binding affinity to human partial length EP300 (A1040 to G1161 residues) expressed in bacterial expression system by BROMOscan method.
Data set [36] is described as follows: Toxicity in imiquimod-induced Harlan Balb/c mouse model of psoriasis assessed as effect on body weight at 10 mg/kg, po BID for 7 days. The conditions noted are these: in vivo, 168 h, time 7 day. It counts as organism-based.

T3 sequence (Q15059 whole entry, the tested form may be a part): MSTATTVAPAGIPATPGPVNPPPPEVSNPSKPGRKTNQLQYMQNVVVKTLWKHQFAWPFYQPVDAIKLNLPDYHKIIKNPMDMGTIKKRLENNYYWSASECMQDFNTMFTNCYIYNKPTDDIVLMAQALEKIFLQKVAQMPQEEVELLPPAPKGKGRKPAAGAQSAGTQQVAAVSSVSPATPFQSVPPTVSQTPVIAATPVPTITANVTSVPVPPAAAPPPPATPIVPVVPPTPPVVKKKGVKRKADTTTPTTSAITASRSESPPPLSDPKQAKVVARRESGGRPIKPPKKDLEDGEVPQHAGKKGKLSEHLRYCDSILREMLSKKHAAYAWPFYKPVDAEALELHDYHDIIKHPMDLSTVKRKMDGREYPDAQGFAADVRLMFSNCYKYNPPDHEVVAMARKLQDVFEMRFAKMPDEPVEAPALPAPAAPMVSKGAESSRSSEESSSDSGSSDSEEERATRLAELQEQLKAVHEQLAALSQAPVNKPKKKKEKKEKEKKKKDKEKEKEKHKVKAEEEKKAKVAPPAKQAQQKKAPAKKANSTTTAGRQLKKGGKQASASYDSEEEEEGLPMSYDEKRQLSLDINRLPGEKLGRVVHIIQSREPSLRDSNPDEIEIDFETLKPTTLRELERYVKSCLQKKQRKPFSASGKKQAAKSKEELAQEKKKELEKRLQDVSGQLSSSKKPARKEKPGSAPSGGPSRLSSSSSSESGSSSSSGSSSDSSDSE
Histone acetyltransferase p300, sequence (Q09472 whole entry, the tested form may be a part): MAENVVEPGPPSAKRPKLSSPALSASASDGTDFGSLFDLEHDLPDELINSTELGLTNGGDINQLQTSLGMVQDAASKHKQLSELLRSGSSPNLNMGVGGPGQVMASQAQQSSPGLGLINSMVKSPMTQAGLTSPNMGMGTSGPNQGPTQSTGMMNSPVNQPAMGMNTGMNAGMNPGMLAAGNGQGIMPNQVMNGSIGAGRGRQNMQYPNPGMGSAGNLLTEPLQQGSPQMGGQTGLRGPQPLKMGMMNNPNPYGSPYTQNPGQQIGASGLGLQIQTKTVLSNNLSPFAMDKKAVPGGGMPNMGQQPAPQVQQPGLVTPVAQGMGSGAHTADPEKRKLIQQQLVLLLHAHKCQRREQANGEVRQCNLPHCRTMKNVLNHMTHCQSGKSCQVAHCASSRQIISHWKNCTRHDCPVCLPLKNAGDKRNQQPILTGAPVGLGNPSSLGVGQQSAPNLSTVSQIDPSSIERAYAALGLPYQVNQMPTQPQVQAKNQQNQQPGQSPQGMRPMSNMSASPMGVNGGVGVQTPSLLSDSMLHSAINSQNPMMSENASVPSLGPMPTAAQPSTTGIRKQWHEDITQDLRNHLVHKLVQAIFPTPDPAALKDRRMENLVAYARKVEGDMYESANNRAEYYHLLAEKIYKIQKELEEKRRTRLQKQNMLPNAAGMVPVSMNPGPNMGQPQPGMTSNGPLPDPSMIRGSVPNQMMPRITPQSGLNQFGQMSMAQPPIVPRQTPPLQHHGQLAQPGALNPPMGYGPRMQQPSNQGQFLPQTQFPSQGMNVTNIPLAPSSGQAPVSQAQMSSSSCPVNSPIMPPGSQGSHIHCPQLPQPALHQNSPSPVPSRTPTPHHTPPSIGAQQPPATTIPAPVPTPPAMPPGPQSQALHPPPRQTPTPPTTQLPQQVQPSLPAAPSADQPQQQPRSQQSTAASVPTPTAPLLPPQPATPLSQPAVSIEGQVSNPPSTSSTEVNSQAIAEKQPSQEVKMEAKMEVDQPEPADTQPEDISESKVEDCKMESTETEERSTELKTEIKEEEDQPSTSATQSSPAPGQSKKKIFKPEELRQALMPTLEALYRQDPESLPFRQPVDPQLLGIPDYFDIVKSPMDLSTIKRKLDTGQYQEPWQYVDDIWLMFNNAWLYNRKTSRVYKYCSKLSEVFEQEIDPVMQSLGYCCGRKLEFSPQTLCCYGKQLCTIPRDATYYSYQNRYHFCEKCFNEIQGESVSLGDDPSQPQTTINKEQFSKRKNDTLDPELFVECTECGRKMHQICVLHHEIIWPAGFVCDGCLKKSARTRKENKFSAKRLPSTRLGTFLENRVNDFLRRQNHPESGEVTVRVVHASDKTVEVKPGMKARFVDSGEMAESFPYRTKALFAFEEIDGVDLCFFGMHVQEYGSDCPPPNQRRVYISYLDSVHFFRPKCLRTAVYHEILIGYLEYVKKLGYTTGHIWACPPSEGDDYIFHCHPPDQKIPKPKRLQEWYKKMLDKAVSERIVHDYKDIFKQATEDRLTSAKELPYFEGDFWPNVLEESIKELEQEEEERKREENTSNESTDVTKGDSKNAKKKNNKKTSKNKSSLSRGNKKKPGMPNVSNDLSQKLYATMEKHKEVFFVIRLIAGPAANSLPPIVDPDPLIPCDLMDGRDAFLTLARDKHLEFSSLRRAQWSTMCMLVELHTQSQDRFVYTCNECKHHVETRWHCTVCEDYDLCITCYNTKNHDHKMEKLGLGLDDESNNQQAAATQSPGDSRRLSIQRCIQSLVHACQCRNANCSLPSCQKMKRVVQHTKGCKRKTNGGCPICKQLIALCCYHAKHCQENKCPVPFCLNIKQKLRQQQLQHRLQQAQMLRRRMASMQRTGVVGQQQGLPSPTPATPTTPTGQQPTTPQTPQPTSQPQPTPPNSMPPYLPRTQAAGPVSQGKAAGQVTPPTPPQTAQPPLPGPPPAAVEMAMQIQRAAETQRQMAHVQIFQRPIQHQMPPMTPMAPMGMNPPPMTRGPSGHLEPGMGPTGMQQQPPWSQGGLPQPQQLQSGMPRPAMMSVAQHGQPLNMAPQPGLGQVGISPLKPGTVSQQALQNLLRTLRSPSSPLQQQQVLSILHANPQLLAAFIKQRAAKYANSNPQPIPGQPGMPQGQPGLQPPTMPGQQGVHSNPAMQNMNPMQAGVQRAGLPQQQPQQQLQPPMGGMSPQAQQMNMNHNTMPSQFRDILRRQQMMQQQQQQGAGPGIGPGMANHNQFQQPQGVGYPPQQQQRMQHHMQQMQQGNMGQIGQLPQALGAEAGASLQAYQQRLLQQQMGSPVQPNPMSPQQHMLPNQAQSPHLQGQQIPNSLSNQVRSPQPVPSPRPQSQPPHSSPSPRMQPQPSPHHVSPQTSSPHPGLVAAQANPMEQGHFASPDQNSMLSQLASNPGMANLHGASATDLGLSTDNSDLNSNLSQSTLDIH

With `CN1C(=O)c2c(F)cccc2Oc2cc(N[C@H]3CC[C@H](O)CC3)ncc21`, the Kd (commonly the constant that tells how readily two partners part at equilibrium) in data set [1] was 0.22 µM; in [3], 0.17 µM; in data set [4], 0.078 µM; in [5] it was 0.14 µM; in [8], 0.16 µM; in data set [19] it was 0.052 µM. Moreover, the equilibrium dissociation constant (Kd) in data set [24] was found to be 0.071 µM; on CREB-binding protein, 1.9 µM; in data set [33], 0.072 µM; in data set [35], 1.2 µM. Besides, the Selectivity ratio in the data set listed under Homo sapiens [2], in the data set listed under Homo sapiens [6], in the data set filed under Homo sapiens [7], in the data set filed under Homo sapiens [9], in the data set listed under Homo sapiens [10] and in the data set listed under Homo sapiens [11] was 20 throughout. The Selectivity ratio in the data set filed under Homo sapiens [12], in the data set filed under Homo sapiens [15], in the data set listed under Homo sapiens [16], in the data set filed under Homo sapiens [21], in the data set listed under Homo sapiens [23] and in the data set listed under Homo sapiens [26] was 20 each time. The Selectivity ratio in the data set listed under Homo sapiens [27], in the data set listed under Homo sapiens [29], in the data set filed under Homo sapiens [30] and in the data set filed under Homo sapiens [32] was 20 in each case. The Activity result in data set [13] is “Non-Toxic”; with Mus musculus [17] it was “Dose-dependent effect”. Besides, the inhibition result in the data set with PBMC [14] and in the data set on PBMC [31] was “Active” in each case. Moreover, the fraction remaining (as a rule, the share of the starting amount still present when the sample was taken) at 1 h in data set [18] worked out at 100%. Further, the concentration for half-maximal inhibition (IC50) (as a rule, the concentration that gives 50% inhibition) is over 10 µM in data set [20], 0.131 µM in [22] and 1.27 µM in [25]. Further, the concentration giving a half-maximal response (EC50) (as a rule, the concentration that produces a half-maximal response) in data set [28] came to 0.44 µM. The result in the data set with Mus musculus [34] was Active.

On to `CCOc1cc([C@@H](CS(C)(=O)=O)N2C(=O)c3cccc(NC(C)=O)c3C2=O)ccc1OC`, for which the Activity entry in data set [36] is on record as “Non-Toxic”. For the same compound, the result in the data set on Mus musculus [34] was Active.

The values are drawn from ChEMBL document CHEMBL4715913, “Discovery of benzo[f]pyrido[4,3-b][1,4]oxazepin-10-one derivatives as orally available bromodomain and extra-terminal domain (BET) inhibitors with efficacy in an in vivo psoriatic animal model” (Bioorg Med Chem, 2021).
